Source: patent US20110152267A1, “Compositions and Methods for Treating Hyperproliferative Disorders” (Texas Tech University System, priority 2009, published 2011)

Legend:
Type in all cases: cell-based, human
[1] = system: PANC-1 pancreatic adenocarcinoma cell line; assay: DIMSCAN cytotoxicity, fenretinide + L-threo-sphinganines 3:1 (Example B18)
Protocol: (§1) Cytotoxicity Assay—Once again, cytotoxicity is determined using the DIMSCAN assay system (R. Proffitt et al., Cytometry 24, 204-213 (1996); T. Frgala et al., Mol Cancer Ther. 6:886-97, 2007). The system employs digital imaging microscopy to quantify viable cells, which selectively accumulate fluorescein diacetate to become brightly fluorescent. The system is capable of measuring cytotoxicity over a 4-5 log dynamic range by quenching the residual fluorescence of dead and dying cells with eosin Y and quantifying the total fluorescence of viable cells using digital thresholding. Measured fluorescence is directly proportionate to the number of viable cells. A comparison of the total fluorescence of a drug-treated cell population to the fluorescence of a similar number of untreated cells yields a survival fraction. In brief, 2000 to 10,000 cells/well (depending on size and growth rates) are replicate plated into 60 wells of a 96-well tissue culture plate in 0.1 mL of whole medium and allowed to attach overnight. Drug(s) are then added in 0.05 mL of whole medium to the final concentrations indicated. Drugs (fenretinide, and various chain length L-threo-sphinganines) were tested both as single agents and in a 3:1 ratio of fenretinide:sphinganine. C18-L-threo-sphinganine, or “safingol,” was also tested and results shown for reference. There are 12 wells treated per drug concentration. Twelve wells receive drug vehicle-only to the appropriate final concentration and serve as controls for the plate. Cells are incubated for 96 hours at 37° C. in ambient air with 5% CO2. Fluorescein diacetate is then added to each well in 0.05 mL media to a final concentration of 8 microgram/mL. Cells are incubated for a further 15 minutes at 37° C. and 0.03 mL of 0.5% eosin Y is added to each well. Total fluorescence of viable cells is then measured by digital imaging microscopy. Results were graphed as the ratio of the fluoresecence of drug-treated wells to non-drug treated control wells (i.e., Survival Fraction). All tests were performed at least twice. Representative results are shown.
(§2) The Combination Index (CI) is a term to describe mathematical modeling of the pharmacologic effects on cytotoxicity (cell death) of two drugs in combination based. Cytotoxic “synergy” is defined as a cell death affect which is greater than would be expected from a simple product of the single agent cytotoxicities alone (i.e. an “additive” effect). By Chou-Talalay analysis, a CI<0.9 on a Fraction Affected (“Fa”, i.e. fraction of cells killed) indicates synergy, with smaller numbers indicating greater synergy; a CI of 0.9-1.1 signifies an additive or near-additive effect; and a CI>1.1 means the drug combination is antagonistic.
Fenretinide and L-threo-sphinganines tested in human pancreatic adenocarcinoma (pancreas cancer) cell line, PANC-1.

[2] = system: A-172 Glioblastoma multiforme cell line; assay: DIMSCAN cytotoxicity, fenretinide + L-threo-sphinganines 3:1 (Example B4); parameters: key to CI (Combination Index): Chou-Talalay CI: <0.9 synergy, 0.9-1.1 additive, >1.1 antagonism; settings: 96 h
Protocol: as §1, §2
Fenretinide and L-threo-sphinganines tested in human Glioblastoma multiforme (brain cancer) cell line, A-172.

[3] = system: T98G Glioblastoma multiforme cell line; assay: DIMSCAN cytotoxicity, fenretinide + L-threo-sphinganines 3:1 (Example B6); settings: 96 h
Protocol: as §1, §2
Fenretinide and L-threo-sphinganines tested in human Glioblastoma multiforme (brain cancer) cell line, T98G.

[4] = system: A-2058 melanoma cell line; assay: DIMSCAN cytotoxicity, fenretinide + L-threo-sphinganines 3:1 (Example B11); settings: 96 h
Protocol: as §1, §2
Fenretinide and L-threo-sphinganines tested in human melanoma (skin cancer) cell line, A-2058.

[5] = system: RPMI-8226 Multiple Myeloma cell line; assay: DIMSCAN cytotoxicity, fenretinide + L-threo-sphinganines 3:1 (Example B2); settings: 96 h
Protocol: as §1, §2
Fenretinide and L-threo-sphinganines tested in human Multiple Myeloma (a cancer of the blood and bone marrow) cell line, RPMI-8226.

[6] = system: PC-3 prostate adenocarcinoma cell line; assay: DIMSCAN cytotoxicity, fenretinide + L-threo-sphinganines 3:1 (Example B17)
Protocol: as §1, §2
Fenretinide and L-threo-sphinganines tested in human prostate adenocarcinoma (prostate cancer) cell line, PC-3.

[7] = system: A-549 lung adenocarcinoma cell line; assay: DIMSCAN cytotoxicity, fenretinide + L-threo-sphinganines 3:1 (Example B13); settings: 96 h
Protocol: as §1, §2
Fenretinide and L-threo-sphinganines tested in human lung adenocarcinoma (lung cancer) cell line, A-549.

[8] = system: SJ-GBM2 Glioblastoma multiforme cell line; assay: DIMSCAN cytotoxicity, fenretinide + L-threo-sphinganines 3:1 (Example B7); parameters: key to CI (Combination Index): Chou-Talalay CI: <0.9 synergy, 0.9-1.1 additive, >1.1 antagonism; settings: 96 h
Protocol: as §1, §2
Fenretinide and L-threo-sphinganines tested in human Glioblastoma multiforme (brain cancer) cell line, SJ-GBM2.

[9] = 4-HPR 1.5 μM + L-threo-sphinganine 0.5 μM
[10] = 4-HPR 3 μM + L-threo-sphinganine 1 μM
[11] = 4-HPR 6 μM + L-threo-sphinganine 2 μM
[12] = 4-HPR 9 μM + L-threo-sphinganine 3 μM

CCCCCCCCCCCCCCCC[C@H](O)[C@@H](N)CO [C19, (2S,3S)-2-amino-1,3-nonadecanediol]
CI [1, 9]: 1.5
Fa [1, 9]: 0.182
CI [1, 10]: 1.8
Fa [1, 10]: 0.321
CI [1, 11]: 1.4
Fa [1, 11]: 0.663
CI [1, 12]: 0.1
Fa [1, 12]: 0.997
CI (Combination Index) [2, 9]: 84.4
Fa (fraction affected) [2, 9]: 0.086
CI (Combination Index) [2, 10]: 8.1
Fa (fraction affected) [2, 10]: 0.578
CI (Combination Index) [2, 11]: >0.1
Fa (fraction affected) [2, 11]: 0.998
CI (Combination Index) [2, 12]: >0.1
Fa (fraction affected) [2, 12]: 1.000
CI (Combination Index) [3, 9]: 0.9
Fa (fraction affected) [3, 9]: 0.584
CI (Combination Index) [3, 10]: 1.1
Fa (fraction affected) [3, 10]: 0.704
CI (Combination Index) [3, 11]: 0.1
Fa (fraction affected) [3, 11]: 0.990
CI (Combination Index) [3, 12]: 0.1
Fa (fraction affected) [3, 12]: 0.995
CI (Combination Index) [4, 9]: 2.1
Fa (fraction affected) [4, 9]: 0.016
CI (Combination Index) [4, 10]: 1.7
Fa (fraction affected) [4, 10]: 0.198
CI (Combination Index) [4, 11]: 1.8
Fa (fraction affected) [4, 11]: 0.648
CI (Combination Index) [4, 12]: 0.8
Fa (fraction affected) [4, 12]: 0.997
CI (Combination Index) [5, 9]: 0.9
Fa (fraction affected) [5, 9]: 0.649
CI (Combination Index) [5, 10]: 0.9
Fa (fraction affected) [5, 10]: 0.895
CI (Combination Index) [5, 11]: 0.5
Fa (fraction affected) [5, 11]: 0.996
CI (Combination Index) [5, 12]: >0.1
Fa (fraction affected) [5, 12]: 1.000
CI [6, 9]: 1.0
Fa [6, 9]: 0.233
CI [6, 10]: 1.1
Fa [6, 10]: 0.406
CI [6, 11]: 1.1
Fa [6, 11]: 0.635
CI [6, 12]: 0.5
Fa [6, 12]: 0.913
CI (Combination Index) [7, 9]: 1.6
Fa (fraction affected) [7, 9]: 0.000
CI (Combination Index) [7, 10]: 0.6
Fa (fraction affected) [7, 10]: 0.007
CI (Combination Index) [7, 11]: 0.7
Fa (fraction affected) [7, 11]: 0.159
CI (Combination Index) [7, 12]: 0.9
Fa (fraction affected) [7, 12]: 0.413
CI (Combination Index) [8, 9]: >>1
Fa (fraction affected) [8, 9]: 0.001
CI (Combination Index) [8, 10]: 0.4
Fa (fraction affected) [8, 10]: 0.672
CI (Combination Index) [8, 11]: 0.7
Fa (fraction affected) [8, 11]: 0.925
CI (Combination Index) [8, 12]: 0.8
Fa (fraction affected) [8, 12]: 0.997

CCCCCCCCCCCCCCCCCC[C@H](O)[C@@H](N)CO [C21]
CI [1, 9]: 2.5
Fa [1, 9]: 0.111
CI [1, 10]: 2.9
Fa [1, 10]: 0.239
CI [1, 11]: 1.6
Fa [1, 11]: 0.784
CI [1, 12]: 0.4
Fa [1, 12]: 0.994
CI (Combination Index) [2, 9]: 8.8
Fa (fraction affected) [2, 9]: 0.006
CI (Combination Index) [2, 10]: 1.6
Fa (fraction affected) [2, 10]: 0.537
CI (Combination Index) [2, 11]: 0.8
Fa (fraction affected) [2, 11]: 0.996
CI (Combination Index) [2, 12]: >0.1
Fa (fraction affected) [2, 12]: 1.000
CI (Combination Index) [3, 9]: 1.2
Fa (fraction affected) [3, 9]: 0.574
CI (Combination Index) [3, 10]: 1.0
Fa (fraction affected) [3, 10]: 0.805
CI (Combination Index) [3, 11]: 1.8
Fa (fraction affected) [3, 11]: 0.832
CI (Combination Index) [3, 12]: 0.1
Fa (fraction affected) [3, 12]: 0.999
CI (Combination Index) [4, 9]: 0.7
Fa (fraction affected) [4, 9]: 0.016
CI (Combination Index) [4, 10]: 1.4
Fa (fraction affected) [4, 10]: 0.016
CI (Combination Index) [4, 11]: 1.9
Fa (fraction affected) [4, 11]: 0.333
CI (Combination Index) [4, 12]: 1.9
Fa (fraction affected) [4, 12]: 0.955
CI (Combination Index) [5, 9]: 1.2
Fa (fraction affected) [5, 9]: 0.517
CI (Combination Index) [5, 10]: 1.6
Fa (fraction affected) [5, 10]: 0.722
CI (Combination Index) [5, 11]: 1.6
Fa (fraction affected) [5, 11]: 0.955
CI (Combination Index) [5, 12]: 1.1
Fa (fraction affected) [5, 12]: 0.999
CI [6, 9]: 1.7
Fa [6, 9]: 0.215
CI [6, 10]: 1.4
Fa [6, 10]: 0.350
CI [6, 11]: 1.6
Fa [6, 11]: 0.479
CI [6, 12]: 0.9
Fa [6, 12]: 0.738
CI (Combination Index) [7, 9]: 0.9
Fa (fraction affected) [7, 9]: 0.078
CI (Combination Index) [7, 10]: 2.6
Fa (fraction affected) [7, 10]: 0.044
CI (Combination Index) [7, 11]: 0.8
Fa (fraction affected) [7, 11]: 0.51
CI (Combination Index) [7, 12]: 0.4
Fa (fraction affected) [7, 12]: 0.972
CI (Combination Index) [8, 9]: 1.4
Fa (fraction affected) [8, 9]: 0.131
CI (Combination Index) [8, 10]: 1.9
Fa (fraction affected) [8, 10]: 0.470
CI (Combination Index) [8, 11]: 2.1
Fa (fraction affected) [8, 11]: 0.946
CI (Combination Index) [8, 12]: 2.0
Fa (fraction affected) [8, 12]: 0.996

CCCCCCCCCCCCCCC[C@H](O)[C@@H](N)CO [C18, (2S,3S)-2-amino-1,3-octadecanediol, reference compound]
CI [1, 9]: 2.5
Fa [1, 9]: 0.136
CI [1, 10]: 2.1
Fa [1, 10]: 0.336
CI [1, 11]: 1.4
Fa [1, 11]: 0.620
CI [1, 12]: 1.5
Fa [1, 12]: 0.700
CI (Combination Index) [2, 9]: 1.3
Fa (fraction affected) [2, 9]: 0.233
CI (Combination Index) [2, 10]: 0.5
Fa (fraction affected) [2, 10]: 0.803
CI (Combination Index) [2, 11]: 0.3
Fa (fraction affected) [2, 11]: 0.956
CI (Combination Index) [2, 12]: 0.1
Fa (fraction affected) [2, 12]: 0.993
CI (Combination Index) [3, 9]: 0.786
Fa (fraction affected) [3, 9]: 0.657
CI (Combination Index) [3, 10]: 1.316
Fa (fraction affected) [3, 10]: 0.701
CI (Combination Index) [3, 11]: 0.767
Fa (fraction affected) [3, 11]: 0.906
CI (Combination Index) [3, 12]: 0.023
Fa (fraction affected) [3, 12]: 0.999
CI (Combination Index) [4, 9]: >1
Fa (fraction affected) [4, 9]: 0.001
CI (Combination Index) [4, 10]: >1
Fa (fraction affected) [4, 10]: 0.01
CI (Combination Index) [4, 11]: >1
Fa (fraction affected) [4, 11]: 0.099
CI (Combination Index) [4, 12]: 1.22
Fa (fraction affected) [4, 12]: 0.815
CI (Combination Index) [5, 9]: 1.0
Fa (fraction affected) [5, 9]: 0.616
CI (Combination Index) [5, 10]: 0.9
Fa (fraction affected) [5, 10]: 0.879
CI (Combination Index) [5, 11]: 0.2
Fa (fraction affected) [5, 11]: 0.997
CI (Combination Index) [5, 12]: >0.1
Fa (fraction affected) [5, 12]: 1
CI [6, 9]: 1.1
Fa [6, 9]: 0.202
CI [6, 10]: 1.4
Fa [6, 10]: 0.346
CI [6, 11]: 1.1
Fa [6, 11]: 0.719
CI [6, 12]: 0.7
Fa [6, 12]: 0.918
CI (Combination Index) [7, 9]: 1.0
Fa (fraction affected) [7, 9]: 0.012
CI (Combination Index) [7, 10]: 1.0
Fa (fraction affected) [7, 10]: 0.05
CI (Combination Index) [7, 11]: 1.0
Fa (fraction affected) [7, 11]: 0.200
CI (Combination Index) [7, 12]: 0.6
Fa (fraction affected) [7, 12]: 0.700
CI (Combination Index) [8, 9]: >>1
Fa (fraction affected) [8, 9]: 0.001
CI (Combination Index) [8, 10]: 0.6
Fa (fraction affected) [8, 10]: 0.712
CI (Combination Index) [8, 11]: 0.6
Fa (fraction affected) [8, 11]: 0.987
CI (Combination Index) [8, 12]: 0.7
Fa (fraction affected) [8, 12]: 0.999
